Test results taken from US7820714B2, “Siglec inhibitors” (priority 2001, dated 2010).
Where two headings read alike, the source gives them in different places.

Key:
Siglec-4a (MAG) = molecular target: T1, Siglec-4a (MAG) (UniProt P20917); assay: Hapten inhibition assay, Siglec-4a (MAG); conditions: for Siglec-4a (MAG) rIP: quotient IC50 reference compound / IC50 compound; for IC50: read-out: Siglec-4a (MAG) IC50; for Siglec-4a (MAG) percentage in parentheses below the IC50 bound: at the concentration of the IC50 bound, meaning not defined in the patent
T1 sequence (P20917 1-627): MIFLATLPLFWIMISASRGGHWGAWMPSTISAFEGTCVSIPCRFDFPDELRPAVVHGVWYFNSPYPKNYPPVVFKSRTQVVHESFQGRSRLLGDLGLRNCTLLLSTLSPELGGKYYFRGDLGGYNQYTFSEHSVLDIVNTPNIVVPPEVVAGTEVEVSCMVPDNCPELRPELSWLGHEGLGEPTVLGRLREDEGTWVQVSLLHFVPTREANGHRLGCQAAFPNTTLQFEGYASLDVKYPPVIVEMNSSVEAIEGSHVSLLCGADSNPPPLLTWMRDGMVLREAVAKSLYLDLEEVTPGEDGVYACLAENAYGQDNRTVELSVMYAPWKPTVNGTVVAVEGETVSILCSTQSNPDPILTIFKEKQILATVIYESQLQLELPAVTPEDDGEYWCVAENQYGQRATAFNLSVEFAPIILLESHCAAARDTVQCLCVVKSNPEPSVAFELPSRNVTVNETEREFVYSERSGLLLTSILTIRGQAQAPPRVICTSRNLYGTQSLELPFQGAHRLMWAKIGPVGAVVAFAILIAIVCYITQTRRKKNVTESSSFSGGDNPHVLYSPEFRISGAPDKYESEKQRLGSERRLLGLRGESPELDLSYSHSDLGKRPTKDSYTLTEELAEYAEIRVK
Experimental: Preferably, the inhibition can be determined by a Hapten inhibition test. […] After overnight incubation at 4° C. the unbound complexes are removed by washing the cells and the bound radioactivity is determined. […] Then followed the addition of 10 μl of a suspension of target cells, preferably 0.25 to 0.5% of human erythrocytes and incubation overnight at 4° C. The unbound radioactivity is removed by washing the cells five times with 200 μl of washing buffer, preferably phosphate-buffered saline with 0.1% (W/V) bovine serum albumin, and the cell-bound activity is determined with a γ-counter. […] The inhibition is determined in that the value without inhibitor is set to 0% and that with the sialidase-treated cells is set equal to 100%.

Siglec-1 (sialoadhesin) = Siglec-1 (sialoadhesin) (Mus musculus, UniProt Q62230); assay: Hapten inhibition assay, Siglec-1 (sialoadhesin); type: binding; conditions: for Siglec-1 (sialoadhesin) rIP: quotient IC50 reference compound / IC50 compound; for Siglec-1 (sialoadhesin) percentage in parentheses below the IC50 bound: at the concentration of the IC50 bound, meaning not defined in the patent
Chain of Siglec-1 (sialoadhesin) (Q62230 20-136 limits assumed): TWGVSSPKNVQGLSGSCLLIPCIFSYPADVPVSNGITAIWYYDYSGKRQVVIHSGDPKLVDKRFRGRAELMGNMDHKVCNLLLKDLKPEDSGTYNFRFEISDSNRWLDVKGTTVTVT
Experimental: Preferably, the inhibition can be determined by a Hapten inhibition test. […] After overnight incubation at 4° C. the unbound complexes are removed by washing the cells and the bound radioactivity is determined. From the data obtained in this way, the concentrations are found which lead to 50% inhibition of the binding (IC50 values) (5, 6). Specially preferred during the Hapten inhibition test was 10 μl of the complex solution with an activity of 10^3 Bq ^125I mixed with the same volume of a solution of the substance to be investigated (concentrated three times) and incubated at 4° C. for one hour. Then followed the addition of 10 μl of a suspension of target cells, preferably 0.25 to 0.5% of human erythrocytes and incubation overnight at 4° C. The unbound radioactivity is removed by washing the cells five times with 200 μl of washing buffer, preferably phosphate-buffered saline with 0.1% (W/V) bovine serum albumin, and the cell-bound activity is determined with a γ-counter. […] The inhibition is determined in that the value without inhibitor is set to 0% and that with the sialidase-treated cells is set equal to 100%.
The IC50 value is the siglec inhibitor concentration which leads to 50% inhibition in the binding in the Hapten inhibition assay.

CC(=O)N[C@H]1[C@H]([C@H](O)[C@H](O)CO)O[C@@](O[C@H]2[C@@H](O)[C@@H](CO)O[C@@H](O[C@H]3[C@H](O)[C@@H](O)C(O)O[C@@H]3CO)[C@@H]2O)(C(=O)O)C[C@@H]1O (some centres unmarked) [2,3-sialyllactose, reference compound]
Siglec-4a (MAG) rIP (Siglec-4a (MAG)): 7.3 | IC50 (Siglec-4a (MAG); unit inferred): 1.6 mM | Siglec-1 (sialoadhesin) rIP (Siglec-1 (sialoadhesin)): 2.4 | IC50 (Siglec-1 (sialoadhesin); unit inferred): 0.385 mM

O=C(NC1C(O)CC(OCc2ccccc2)(C(=O)O)OC1C(O)C(O)CO)c1ccccc1 (stereo not drawn) [Benzyl-α-5-N-benzoyl-neuraminic acid]
Siglec-4a (MAG) percentage in parentheses below the IC50 bound (Siglec-4a (MAG)): (27%) | Siglec-4a (MAG) rIP (Siglec-4a (MAG)): >0.27 | IC50 (Siglec-4a (MAG); bounds given in mM): < 10 mM | Siglec-1 (sialoadhesin) percentage in parentheses below the IC50 bound (Siglec-1 (sialoadhesin)): (63%) | IC50 (Siglec-1 (sialoadhesin); bounds given in mM): > 10 mM | Siglec-1 (sialoadhesin) rIP (Siglec-1 (sialoadhesin)): <0.05

CCCC(=O)N[C@H]1[C@H]([C@H](O)[C@H](O)CO)O[C@@](OCc2ccccc2)(C(=O)O)C[C@@H]1O [Benzyl-α-5-N-butanoyl-neuraminic acid]
Siglec-4a (MAG) rIP (Siglec-4a (MAG)): 1.5 | IC50 (Siglec-4a (MAG); unit inferred): 5.3 mM | Siglec-1 (sialoadhesin) rIP (Siglec-1 (sialoadhesin)): 2.7 | IC50 (Siglec-1 (sialoadhesin); unit inferred): 0.25 mM

CCC(=O)NC1C(O)CC(OCc2ccccc2)(C(=O)O)OC1C(O)C(O)CO (stereo not drawn) [Benzyl-α-5-N-propanoyl-neuraminic acid]
Siglec-4a (MAG) rIP (Siglec-4a (MAG)): 4.8 | IC50 (Siglec-4a (MAG); unit inferred): 2.5 mM | Siglec-1 (sialoadhesin) rIP (Siglec-1 (sialoadhesin)): 3.4 | IC50 (Siglec-1 (sialoadhesin); unit inferred): 0.215 mM

CC(=O)N[C@H]1[C@H]([C@H](O)[C@H](O)CO)O[C@@](SCc2ccccc2)(C(=O)O)C[C@@H]1O [Benzylthio-α-Neu5Ac]
Siglec-4a (MAG) rIP (Siglec-4a (MAG)): 3.0 | IC50 (Siglec-4a (MAG); unit inferred): 2 mM | Siglec-1 (sialoadhesin) rIP (Siglec-1 (sialoadhesin)): 4.1 | IC50 (Siglec-1 (sialoadhesin); unit inferred): 0.28 mM

CO[C@]1(C(=O)O)C[C@H](O)[C@@H](NC(C)=O)[C@H]([C@H](O)[C@H](O)CNC(=O)C(CNC(C)=O)NC(C)=O)O1 (stereo partly drawn) [Methyl-α-9-N-(2,3-diacetylaminopropanoyl)-amino-9-desoxy-Neu5Ac]
Siglec-4a (MAG) rIP (Siglec-4a (MAG)): 2.3 | IC50 (Siglec-4a (MAG); unit inferred): 2.5 mM | Siglec-1 (sialoadhesin) percentage in parentheses below the IC50 bound (Siglec-1 (sialoadhesin)): (80%) | IC50 (Siglec-1 (sialoadhesin); bounds given in mM): > 10 mM | Siglec-1 (sialoadhesin) rIP (Siglec-1 (sialoadhesin)): <<0.1

CCOc1c(NC[C@@H](O)[C@@H](O)[C@@H]2O[C@@](OC)(C(=O)O)C[C@H](O)[C@H]2NC(C)=O)c(=O)c1=O [Methyl-α-9-N-(ethoxycyclobutendion)-amino-9-desoxy-Neu5Ac]
Siglec-4a (MAG) rIP (Siglec-4a (MAG)): 32 | IC50 (Siglec-4a (MAG); unit inferred): 0.24 mM | Siglec-1 (sialoadhesin) rIP (Siglec-1 (sialoadhesin)): 0.2 | IC50 (Siglec-1 (sialoadhesin); unit inferred): 1.33 mM

COC1(C(=O)O)CC(O)C(NC(C)=O)C(C(O)C(O)CNC(=O)CNC(=O)CN)O1 (stereo not drawn) [Methyl-α-9-N-(gly)2-amino-9-desoxy-Neu5Ac]
Siglec-4a (MAG) rIP (Siglec-4a (MAG)): 0.9 | IC50 (Siglec-4a (MAG); unit inferred): 5 mM | Siglec-1 (sialoadhesin) percentage in parentheses below the IC50 bound (Siglec-1 (sialoadhesin)): (100%) | IC50 (Siglec-1 (sialoadhesin); bounds given in mM): > 10 mM | Siglec-1 (sialoadhesin) rIP (Siglec-1 (sialoadhesin)): <<0.1

COC1(C(=O)O)CC(O)C(NC(C)=O)C(C(O)C(O)CNC(=O)CNC(=O)CNC(=O)CN)O1 (stereo not drawn) [Methyl-α-9-N-(gly)3-amino-9-desoxy-Neu5Ac]
Siglec-4a (MAG) percentage in parentheses below the IC50 bound (Siglec-4a (MAG)): (88%) | Siglec-4a (MAG) rIP (Siglec-4a (MAG)): <<0.27 | IC50 (Siglec-4a (MAG); bounds given in mM): > 10 mM | Siglec-1 (sialoadhesin) percentage in parentheses below the IC50 bound (Siglec-1 (sialoadhesin)): (11%) | IC50 (Siglec-1 (sialoadhesin); bounds given in mM): < 10 mM | Siglec-1 (sialoadhesin) rIP (Siglec-1 (sialoadhesin)): >>0.05

COC1(C(=O)O)CC(O)C(NC(C)=O)C(C(O)C(O)CNC(=O)Cc2ccccc2)O1 (stereo not drawn) [Methyl-α-9-N-(phenylacetyl)-amino-9-desoxy-Neu5Ac]
Siglec-4a (MAG) rIP (Siglec-4a (MAG)): 7 | IC50 (Siglec-4a (MAG); unit inferred): 0.367 mM

COC1(C(=O)O)CC(O)C(NC(C)=O)C(C(O)C(O)CNC(=O)CC(C)=O)O1 (stereo not drawn) [Methyl-α-9-N-acetoacetyl-amino-9-desoxy-Neu5Ac]
Siglec-4a (MAG) rIP (Siglec-4a (MAG)): 6.2 | IC50 (Siglec-4a (MAG); unit inferred): 1.01 mM | Siglec-1 (sialoadhesin) percentage in parentheses below the IC50 bound (Siglec-1 (sialoadhesin)): (62%) | IC50 (Siglec-1 (sialoadhesin); bounds given in mM): > 10 mM | Siglec-1 (sialoadhesin) rIP (Siglec-1 (sialoadhesin)): <0.05

CO[C@]1(C(=O)O)C[C@H](O)[C@@H](NC(C)=O)[C@H]([C@H](O)[C@H](O)CNC(=O)CN)O1 [Methyl-α-9-N-aminoacetyl-9-desoxy-Neu5Ac]
Siglec-4a (MAG) rIP (Siglec-4a (MAG)): 3.3 | IC50 (Siglec-4a (MAG); unit inferred): 3.4 mM | Siglec-1 (sialoadhesin) rIP (Siglec-1 (sialoadhesin)): 0.3 | IC50 (Siglec-1 (sialoadhesin); unit inferred): 7.48 mM

COC1(C(=O)O)CC(O)C(NC(C)=O)C(C(O)C(O)CNS(=O)(=O)c2cccc3c(N(C)C)cccc23)O1 (stereo not drawn) [Methyl-α-9-N-dansyl-amino-9-desoxy-Neu5Ac]
Siglec-4a (MAG) rIP (Siglec-4a (MAG)): 19 | IC50 (Siglec-4a (MAG); unit inferred): 0.317 mM | Siglec-1 (sialoadhesin) rIP (Siglec-1 (sialoadhesin)): 2.6 | IC50 (Siglec-1 (sialoadhesin); unit inferred): 0.26 mM

CCCCCC(=O)NCC(O)C(O)C1OC(OC)(C(=O)O)CC(O)C1NC(C)=O (stereo not drawn) [Methyl-α-9-N-hexanoyl-amino-9-desoxy-Neu5Ac]
Siglec-4a (MAG) rIP (Siglec-4a (MAG)): 54 | IC50 (Siglec-4a (MAG); unit inferred): 0.198 mM | Siglec-1 (sialoadhesin) rIP (Siglec-1 (sialoadhesin)): 0.7 | IC50 (Siglec-1 (sialoadhesin); unit inferred): 1.46 mM

COC1(C(=O)O)CC(O)C(NC(C)=O)C(C(O)C(O)CNC(=O)C(N)=O)O1 (stereo not drawn) [Methyl-α-9-N-oxamido-amino-9-desoxy-Neu5Ac]
Siglec-1 (sialoadhesin) percentage in parentheses below the IC50 bound (Siglec-1 (sialoadhesin)): (57%) | Siglec-1 (sialoadhesin) rIP (Siglec-1 (sialoadhesin)): <0.2 | IC50 (Siglec-1 (sialoadhesin); unit inferred): > 4 mM

CO[C@]1(C(=O)O)C[C@H](O)[C@@H](NC(C)=O)[C@H]([C@H](O)[C@H](O)CNC(C)=S)O1 [Methyl-α-9-N-thioacetyl-amino-9-desoxy-Neu5Ac]
Siglec-4a (MAG) rIP (Siglec-4a (MAG)): 6.5 | IC50 (Siglec-4a (MAG); unit inferred): 0.733 mM | Siglec-1 (sialoadhesin) rIP (Siglec-1 (sialoadhesin)): 0.3 | IC50 (Siglec-1 (sialoadhesin); unit inferred): 6 mM

COC1(C(=O)O)CC(O)C(NC(C)=O)C(C(O)C(O)CNC(=O)C(F)(F)F)O1 (stereo not drawn) [Methyl-α-9-N-trifluoracetyl-amino-9-desoxy-Neu5Ac]
Siglec-4a (MAG) rIP (Siglec-4a (MAG)): 10 | IC50 (Siglec-4a (MAG); unit inferred): 0.55 mM | Siglec-1 (sialoadhesin) rIP (Siglec-1 (sialoadhesin)): 0.5 | IC50 (Siglec-1 (sialoadhesin); unit inferred): 4 mM

COC1(C(=O)O)CC(O)C(NC(C)=O)C(C(O)C(O)C(=O)O)O1 (stereo not drawn) [Methyl-α-9-carboxy-Neu5Ac]
Siglec-4a (MAG) percentage in parentheses below the IC50 bound (Siglec-4a (MAG)): (87%) | Siglec-4a (MAG) rIP (Siglec-4a (MAG)): <<2.4 | IC50 (Siglec-4a (MAG); unit inferred): > 1 mM | Siglec-1 (sialoadhesin) percentage in parentheses below the IC50 bound (Siglec-1 (sialoadhesin)): (63%) | Siglec-1 (sialoadhesin) rIP (Siglec-1 (sialoadhesin)): <0.2 | IC50 (Siglec-1 (sialoadhesin); unit inferred): > 4 mM

CO[C@]1(C(=O)O)C[C@H](O)[C@@H](NC(C)=O)[C@H]([C@H](O)[C@H](O)CS(C)(=O)=O)O1 [Methyl-α-9-methylsulphonyl-9-desoxy-Neu5Ac]
Siglec-4a (MAG) rIP (Siglec-4a (MAG)): 0.1 | IC50 (Siglec-4a (MAG); unit inferred): 3.4 mM | Siglec-1 (sialoadhesin) rIP (Siglec-1 (sialoadhesin)): <<0.05 | IC50 (Siglec-1 (sialoadhesin); unit inferred): 2 mM

CO[C@]1(C(=O)O)C[C@H](O)[C@@H](NC(C)=O)[C@H]([C@H](O)[C@H](O)C[S+](C)[O-])O1 (stereo partly drawn) [Methyl-α-9-methylsulphoxido-9-desoxy-Neu5Ac]
Siglec-4a (MAG) rIP (Siglec-4a (MAG)): 8.5 | IC50 (Siglec-4a (MAG); unit inferred): 0.697 mM | Siglec-1 (sialoadhesin) rIP (Siglec-1 (sialoadhesin)): <0.05 | IC50 (Siglec-1 (sialoadhesin); unit inferred): 2 mM

COC1(C(=O)O)CC(O)C(NC(C)=O)C(C(O)C(O)CSC)O1 (stereo not drawn) [Methyl-α-9-methylthio-9-desoxy-Neu5Ac]
Siglec-4a (MAG) percentage in parentheses below the IC50 bound (Siglec-4a (MAG)): (116%) | Siglec-4a (MAG) rIP (Siglec-4a (MAG)): <<0.27 | IC50 (Siglec-4a (MAG); bounds given in mM): > 10 mM | Siglec-1 (sialoadhesin) rIP (Siglec-1 (sialoadhesin)): <<0.05

COC(=O)C1(OC)CC(O)C(NC(=O)CF)C(C(O)C(O)CO)O1 (stereo not drawn) [Methyl-α-methyl-α-5-N-fluoracetyl-neuraminic acid]
Siglec-4a (MAG) rIP (Siglec-4a (MAG)): 17.1 | IC50 (Siglec-4a (MAG); unit inferred): 0.28 mM | Siglec-1 (sialoadhesin) rIP (Siglec-1 (sialoadhesin)): 1.9 | IC50 (Siglec-1 (sialoadhesin); unit inferred): 0.625 mM

Methyl-α-methyl-α-5-N-fluoracetylaminoacetyl-neuraminic acid
Siglec-4a (MAG) percentage in parentheses below the IC50 bound (Siglec-4a (MAG)): (90%) | IC50 (Siglec-4a (MAG); bounds given in mM): > 10 mM | Siglec-1 (sialoadhesin) rIP (Siglec-1 (sialoadhesin)): 0.4 | IC50 (Siglec-1 (sialoadhesin); unit inferred): 2.5 mM
